Test results from patent US20150025120A1, “PYRAZOLE-ALCOHOL COMPOUNDS AND PHARMACEUTICAL USE THEREOF” (JAPAN TOBACCO INC., priority 2013, published 2015).

Tests used:
[1] = test system: Zucker Diabetic Fatty rats; assay: Effect of repeated administration of test compound on HbA1c in ZDF rats; format: in vivo, rat; conditions: 1 mg/kg orally once daily, mean ± standard deviation (n = 10)
Method: Zucker Diabetic Fatty rats (male, 7-week-old, CHARLES RIVER LABORATORIES JAPAN INC.), an animal model for type 2 diabetes, given a purified diet (5.9% fat diet, Oriental Yeast Co., Ltd.) were allocated to the vehicle group and the test compound groups so that no bias occurred in the plasma glucose and insulin levels, HbA1c levels and body weights. Repeated oral doses of the test compound (1 mg/kg/5 mL) were administered to the rats once daily at 3 hr before the dark period. A 0.5% aqueous methylcellulose solution was orally administered in the same manner to the rats of the vehicle group. On day 14 or 21 of administration, blood samples were collected from the tail vein and HbA1c level (%) was measured. Statistical analysis was performed by Dunnett's test. Values of p<0.05 were considered statistically significant.

human PDHK1 (hPDHK1) = biological target: T1, human PDHK1 (hPDHK1) (Homo sapiens, UniProt Q15118); assay: Inhibitory action of PDHK1 activity in vitro (residual PDH activity after kinase reaction); format: biochemical
T1 construct: made in house; host or cells: Escherichia coli BL21(DE3), pET17b
Method: The inhibitory action of PDHK activity was assessed indirectly by measuring the residual PDH activity after kinase reaction in the presence of a test compound.
In the case of human PDHK1 (hPDHK1, Genbank Accession No. L42450.1), a 1.3 kbp fragment encoding this protein was isolated from human liver cDNA by polymerase chain reaction (PCR). Modified hPDHK1 cDNA wherein FLAG-Tag sequence was added to the N terminus was prepared by PCR and cloned into a vector (pET17b-Novagen). The recombinant construct was transformed into Escherichia coli (DH5α-TOYOBO). The recombinant clones were identified, and plasmid DNA was isolated and subjected to the DNA sequence analysis. One clone which had the expected nucleic acid sequence was selected for expression work. […]
Then, 10 μL of substrates (5 mmol/L sodium pyruvate, 5 mmol/L Coenzyme A, 12 mmol/L NAD, 5 mmol/L thiamin pyrophosphate, diluted with buffer) were added. The mixture was incubated at room temperature for 90 min, and the residual PDH activity was measured.
The absorbance at 340 nm before and after PDH reaction was measured using a microplate reader to detect NADH produced by the PDH reaction. The hPDHK1 inhibition rate (%) of the test compound was calculated from the formula [{(PDH activity of the test compound−PDH activity of control)/PDH activity of blank−PDH activity of control)}× 100].

T1 sequence (Q15118 29-436): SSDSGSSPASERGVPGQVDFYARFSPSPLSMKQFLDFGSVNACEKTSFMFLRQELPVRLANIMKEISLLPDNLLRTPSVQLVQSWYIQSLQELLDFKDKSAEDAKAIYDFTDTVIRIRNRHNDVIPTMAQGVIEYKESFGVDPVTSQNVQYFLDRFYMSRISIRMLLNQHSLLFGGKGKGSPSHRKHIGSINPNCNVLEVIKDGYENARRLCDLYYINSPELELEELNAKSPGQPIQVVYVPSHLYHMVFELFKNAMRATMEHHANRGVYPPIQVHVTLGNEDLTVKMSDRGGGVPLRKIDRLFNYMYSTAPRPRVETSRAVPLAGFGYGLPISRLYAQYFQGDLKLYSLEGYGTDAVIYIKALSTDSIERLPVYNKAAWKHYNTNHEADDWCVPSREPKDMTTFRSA

Row | Compound | HbAlc (%) ([1]; day 21 of administration) | IC50 (human PDHK1 (hPDHK1)) [nM] | HbAlc (%) ([1]; day 14 of administration)
1 | C[C@H](O)COc1cc(-c2cnn(CC(C)(C)O)c2)c2c(c1)[C@@](O)(C(F)(F)F)c1ccccc1-2 [compound (1), (9R)-4-[1-(2-hydroxy-2-methylpropyl)-1H-pyrazol-4-yl]-2-((2S)-2-hydroxypropoxy)-9-(trifluoromethyl)-9H-fluoren-9-ol] | 3.6 ± 0.3 | 28 | 
2 | CC(C)(O)COc1cc(-c2cnn(CC(C)(C)O)c2)c2c(c1)[C@@](O)(C(F)(F)F)c1ccccc1-2 [compound (2), (9R)-2-(2-hydroxy-2-methylpropoxy)-4-[1-(2-hydroxy-2-methylpropyl)-1H-pyrazol-4-yl]-9-(trifluoromethyl)-9H-fluoren-9-ol] |  | 34 | 3.5 ± 0.1
